Source: patent publication US20230219979A1, “PYRAZOLO[1,5-a]PYRIDINE COMPOUND, PREPARATION METHOD THEREFOR AND USE THEREOF” (SHENZHEN ZHONGGE BIOLOGICAL TECHNOLOGY CO., LTD., priority 2019, published 2023)

Key:
Wild-type RET kinase = Wild-type RET kinase (Homo sapiens, UniProt P07949); experiment: HTRF method for testing the inhibitory activity of compounds against RET; type: biochemical; conditions: HTRF; read-out: Wild-type RET kinase
VEGFR2 kinase = VEGFR2 kinase (Homo sapiens, UniProt P35968); experiment: HTRF method for testing the inhibitory activity of compounds against VEGFR2; type: biochemical
Sequence of VEGFR2 kinase (P35968 20-1356): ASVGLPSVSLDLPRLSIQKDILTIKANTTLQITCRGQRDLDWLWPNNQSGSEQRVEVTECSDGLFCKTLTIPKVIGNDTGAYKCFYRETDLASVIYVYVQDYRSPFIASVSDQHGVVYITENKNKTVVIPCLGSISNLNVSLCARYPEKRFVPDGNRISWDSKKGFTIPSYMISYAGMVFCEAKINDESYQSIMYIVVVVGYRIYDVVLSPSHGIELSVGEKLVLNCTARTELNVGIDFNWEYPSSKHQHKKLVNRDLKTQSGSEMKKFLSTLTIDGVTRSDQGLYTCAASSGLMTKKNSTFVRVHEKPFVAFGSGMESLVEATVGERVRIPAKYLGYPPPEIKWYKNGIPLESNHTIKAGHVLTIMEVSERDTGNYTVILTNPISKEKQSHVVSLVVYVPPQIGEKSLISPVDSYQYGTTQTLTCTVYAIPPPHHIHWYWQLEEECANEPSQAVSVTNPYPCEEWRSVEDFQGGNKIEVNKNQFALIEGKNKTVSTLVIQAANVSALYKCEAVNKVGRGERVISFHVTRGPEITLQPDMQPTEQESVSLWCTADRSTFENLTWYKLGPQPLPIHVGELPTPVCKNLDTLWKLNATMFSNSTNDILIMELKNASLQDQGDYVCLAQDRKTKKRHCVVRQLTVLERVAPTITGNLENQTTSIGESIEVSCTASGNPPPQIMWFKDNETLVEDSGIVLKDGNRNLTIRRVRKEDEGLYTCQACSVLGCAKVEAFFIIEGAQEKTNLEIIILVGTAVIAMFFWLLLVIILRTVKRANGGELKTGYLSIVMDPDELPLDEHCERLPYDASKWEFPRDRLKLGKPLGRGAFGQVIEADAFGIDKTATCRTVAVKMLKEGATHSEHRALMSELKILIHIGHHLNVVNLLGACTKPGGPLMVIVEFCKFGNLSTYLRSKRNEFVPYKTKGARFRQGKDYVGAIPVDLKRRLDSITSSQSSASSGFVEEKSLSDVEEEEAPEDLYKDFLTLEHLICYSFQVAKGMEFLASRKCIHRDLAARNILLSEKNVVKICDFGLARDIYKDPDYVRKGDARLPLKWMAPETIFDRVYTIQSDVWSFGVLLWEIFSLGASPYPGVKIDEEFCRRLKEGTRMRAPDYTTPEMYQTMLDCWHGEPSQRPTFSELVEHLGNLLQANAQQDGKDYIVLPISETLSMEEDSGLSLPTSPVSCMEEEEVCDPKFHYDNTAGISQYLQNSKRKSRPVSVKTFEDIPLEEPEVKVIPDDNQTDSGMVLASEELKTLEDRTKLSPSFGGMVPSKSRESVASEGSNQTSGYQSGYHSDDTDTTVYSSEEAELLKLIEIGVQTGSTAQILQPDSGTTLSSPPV

Ba/F3-KIF5B-RET cell = biological target: T1, Ba/F3-KIF5B-RET cell (Homo sapiens, UniProt P07949); experiment: CellTiter-Glo luminescence assay, inhibitory activity against Ba/F3-KIF5B-RET cell; type: cell-based; conditions: 72 h, read-out: Ba/F3-KIF5B-RET cell activity
T1 construct: fused on or other part: P33176 (Kinesin-1 heavy chain)
T1 sequence (P07949 whole entry, stated change not applied, the tested form may be a part): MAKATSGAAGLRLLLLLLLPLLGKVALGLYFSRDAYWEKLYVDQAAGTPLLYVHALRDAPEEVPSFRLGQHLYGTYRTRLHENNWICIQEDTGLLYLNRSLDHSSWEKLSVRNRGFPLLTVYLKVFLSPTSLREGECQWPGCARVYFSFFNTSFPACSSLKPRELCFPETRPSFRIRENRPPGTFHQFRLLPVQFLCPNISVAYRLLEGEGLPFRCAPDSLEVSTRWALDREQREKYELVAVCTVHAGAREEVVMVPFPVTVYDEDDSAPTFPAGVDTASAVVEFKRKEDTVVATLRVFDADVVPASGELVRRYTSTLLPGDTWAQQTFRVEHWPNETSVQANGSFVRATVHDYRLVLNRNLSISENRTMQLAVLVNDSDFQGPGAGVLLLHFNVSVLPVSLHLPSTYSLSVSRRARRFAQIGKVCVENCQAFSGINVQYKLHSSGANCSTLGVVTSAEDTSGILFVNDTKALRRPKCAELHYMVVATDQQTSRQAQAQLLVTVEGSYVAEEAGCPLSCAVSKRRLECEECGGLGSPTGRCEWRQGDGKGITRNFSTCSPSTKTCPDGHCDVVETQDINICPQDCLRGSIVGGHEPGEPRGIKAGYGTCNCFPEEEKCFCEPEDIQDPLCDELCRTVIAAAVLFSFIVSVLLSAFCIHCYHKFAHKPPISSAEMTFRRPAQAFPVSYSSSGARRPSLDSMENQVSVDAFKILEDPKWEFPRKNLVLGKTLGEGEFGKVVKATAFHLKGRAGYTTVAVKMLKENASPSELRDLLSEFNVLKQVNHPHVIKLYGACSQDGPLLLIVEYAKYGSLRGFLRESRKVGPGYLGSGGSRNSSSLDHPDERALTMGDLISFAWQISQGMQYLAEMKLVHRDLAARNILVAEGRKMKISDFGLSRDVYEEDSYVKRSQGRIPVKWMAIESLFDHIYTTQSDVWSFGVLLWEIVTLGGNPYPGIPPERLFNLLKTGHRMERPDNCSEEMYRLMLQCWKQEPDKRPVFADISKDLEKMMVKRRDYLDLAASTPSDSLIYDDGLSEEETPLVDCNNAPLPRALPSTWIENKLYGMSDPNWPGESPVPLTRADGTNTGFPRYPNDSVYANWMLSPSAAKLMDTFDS
In short: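 Ba/F3 cells stably expressing human KIF5B-RET, 800 per well, treated 72 h at 37° C with 10 compound concentrations from 5000 to 0.254 nM (0.5% DMSO). Viability by CellTiter-Glo luminescence; IC50 from curve fitting.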

RET G810S kinase = RET G810S kinase (Homo sapiens, UniProt P07949, G810S); experiment: HTRF method for testing the inhibitory activity against RET G810S; type: biochemical; conditions: for IC50: HTRF; for inhibitory activity against G810S (in words): mutant strain of RET kinase
Sequence of RET G810S kinase (P07949 29-1114 G810S): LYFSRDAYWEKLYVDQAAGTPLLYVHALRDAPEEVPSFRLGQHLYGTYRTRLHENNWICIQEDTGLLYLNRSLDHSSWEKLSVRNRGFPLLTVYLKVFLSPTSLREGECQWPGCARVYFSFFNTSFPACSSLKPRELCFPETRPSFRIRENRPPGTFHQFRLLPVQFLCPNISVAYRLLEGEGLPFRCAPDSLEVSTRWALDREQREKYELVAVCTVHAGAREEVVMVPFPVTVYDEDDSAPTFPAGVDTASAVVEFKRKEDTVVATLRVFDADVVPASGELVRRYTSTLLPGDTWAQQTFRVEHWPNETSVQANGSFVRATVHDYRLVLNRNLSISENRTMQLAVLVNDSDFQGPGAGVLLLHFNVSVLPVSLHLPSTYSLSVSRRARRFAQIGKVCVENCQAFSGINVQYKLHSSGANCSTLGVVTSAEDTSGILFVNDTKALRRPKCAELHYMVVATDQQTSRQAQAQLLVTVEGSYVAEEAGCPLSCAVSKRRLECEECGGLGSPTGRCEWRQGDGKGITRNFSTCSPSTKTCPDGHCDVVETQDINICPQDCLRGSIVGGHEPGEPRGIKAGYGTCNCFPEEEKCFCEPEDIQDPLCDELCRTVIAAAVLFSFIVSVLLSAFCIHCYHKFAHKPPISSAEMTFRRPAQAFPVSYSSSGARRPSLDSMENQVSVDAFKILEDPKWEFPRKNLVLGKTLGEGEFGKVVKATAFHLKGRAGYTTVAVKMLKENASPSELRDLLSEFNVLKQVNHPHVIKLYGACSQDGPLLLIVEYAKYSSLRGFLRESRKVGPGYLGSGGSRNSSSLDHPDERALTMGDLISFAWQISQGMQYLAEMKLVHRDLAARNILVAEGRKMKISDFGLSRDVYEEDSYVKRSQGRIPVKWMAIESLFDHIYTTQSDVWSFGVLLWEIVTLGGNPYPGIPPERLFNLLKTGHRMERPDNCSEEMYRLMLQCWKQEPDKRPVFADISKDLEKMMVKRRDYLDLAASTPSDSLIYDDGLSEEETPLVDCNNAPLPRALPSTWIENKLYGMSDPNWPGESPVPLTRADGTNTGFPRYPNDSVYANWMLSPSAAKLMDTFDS

RET G810R kinase = RET G810R kinase (Homo sapiens, UniProt P07949, G810R); experiment: HTRF method for testing the inhibitory activity against RET G810R; type: biochemical; conditions: for IC50: HTRF; for inhibitory activity against G810R (in words): mutant strain of RET kinase
Sequence of RET G810R kinase (P07949 29-1114 G810R): as the sequence (P07949 29-1114 G810S) above, with S782R counted along it

CCDC6-RET = biological target: T2, CCDC6-RET (Homo sapiens, UniProt P07949); experiment: Inhibitory activity against RET gene fusion CCDC6-RET; type: biochemical; conditions: read-out: median inhibitory activity (IC50) against CCDC6-RET
T2 construct: CCDC6 (fusion partner, N-terminal part); the other entry of the earlier key: CCDC6 (Q16204, Coiled-coil domain-containing protein 6)
T2 sequence (P07949 with tags, fused parts or gaps): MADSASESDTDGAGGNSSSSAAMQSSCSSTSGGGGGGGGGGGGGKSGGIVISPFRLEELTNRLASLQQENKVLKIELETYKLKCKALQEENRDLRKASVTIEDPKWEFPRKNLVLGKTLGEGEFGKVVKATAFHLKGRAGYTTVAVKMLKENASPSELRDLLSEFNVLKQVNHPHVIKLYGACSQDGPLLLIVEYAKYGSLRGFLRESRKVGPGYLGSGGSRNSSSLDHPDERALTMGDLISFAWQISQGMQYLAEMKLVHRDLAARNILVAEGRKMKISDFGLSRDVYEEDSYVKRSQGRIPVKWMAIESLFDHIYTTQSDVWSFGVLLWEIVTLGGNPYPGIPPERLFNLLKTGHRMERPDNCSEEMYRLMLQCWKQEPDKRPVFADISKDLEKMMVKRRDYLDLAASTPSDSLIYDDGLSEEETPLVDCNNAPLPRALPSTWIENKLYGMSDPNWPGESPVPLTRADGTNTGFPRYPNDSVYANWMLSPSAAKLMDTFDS

RET V804M = RET V804M (Homo sapiens, UniProt P07949, V804M); experiment: Inhibitory activity against RET kinase mutant RET V804M; type: biochemical; conditions: read-out: median inhibitory activity (IC50) against RET V804M
Sequence of RET V804M (P07949 29-1114 V804M): as the sequence (P07949 29-1114 G810S) above, with V776M, S782G counted along it

RET M918T = RET M918T (Homo sapiens, UniProt P07949, M918T); experiment: Inhibitory activity against RET kinase mutant RET M918T; type: biochemical; conditions: read-out: median inhibitory activity (IC50) against RET M918T
Sequence of RET M918T (P07949 29-1114 M918T): as the sequence (P07949 29-1114 G810S) above, with S782G, M890T counted along it

Sequence of Wild-type RET kinase (P07949 29-1114): as the sequence (P07949 29-1114 G810S) above, with S782G counted along it

With `COc1ccc(CN2C3CC2CN(c2ccc(-c4cc(NCC(C)(C)O)cn5ncc(C#N)c45)cn2)C3)cn1` [Compound 63, 6-((2-hydroxy-2-methylpropyl)amino)-4-(6-(6-((6-methoxypyridin-3-yl)methyl)-3,6-diazabicyclo[3.1.1]heptan-3-yl)pyridin-3-yl)pyrazolo[1,5-a]pyridine-3-carbonitrile] the IC50 (Wild-type RET kinase) was 0.47 nM, the IC50 (VEGFR2 kinase) was 65.2 nM and the GI50 (Ba/F3-KIF5B-RET cell) was 3.39 nM. The IC50 (RET G810S kinase) was 15 nM, the “inhibitory activity against G810S (in words)” value (RET G810S kinase) was “good inhibitory activity” and the IC50 (RET G810R kinase) was 76.9 nM. For the same compound, the “inhibitory activity against G810R (in words)” value (RET G810R kinase) was “good inhibitory activity”.
`CCNc1cc(-c2ccc(N3CC4CC(C3)N4Cc3ccc(OC)nc3)nc2)c2c(C#N)cnn2c1` [Compound 62, 6-(ethylamino)-4-(6-(6-((6-methoxypyridin-3-yl)methyl)-3,6-diazabicyclo[3.1.1]heptan-3-yl)pyridin-3-yl)pyrazolo[1,5-a]pyridine-3-carbonitrile] showed an IC50 (Wild-type RET kinase) of 0.21 nM, an IC50 (VEGFR2 kinase) of 20 nM and a GI50 (Ba/F3-KIF5B-RET cell) of 1.82 nM. For the same compound, the IC50 (RET G810S kinase) was 0.8 nM, the “inhibitory activity against G810S (in words)” value (RET G810S kinase) was “good inhibitory activity” and the IC50 (RET G810R kinase) was 6.22 nM. For the same compound, the “inhibitory activity against G810R (in words)” value (RET G810R kinase) was “good inhibitory activity”.
With `COc1ccc(CN2C3CC2CN(c2ccc(-c4cc(NC(C)C)cn5ncc(C#N)c45)cn2)C3)cn1` [Compound 69, 6-(isopropylamino)-4-(6-(6-((6-methoxypyridin-3-yl)methyl)-3,6-diazabicyclo[3.1.1]heptyl-3-yl)pyridin-3-yl)pyrazolo[1,5-a]pyridine-3-carbonitrile] the IC50 (Wild-type RET kinase) was 0.47 nM, the IC50 (VEGFR2 kinase) was 42.2 nM and the GI50 (Ba/F3-KIF5B-RET cell) was 4.14 nM. The IC50 (RET G810S kinase) was 27 nM, the “inhibitory activity against G810S (in words)” value (RET G810S kinase) was “good inhibitory activity” and the IC50 (RET G810R kinase) was 42.4 nM. The “inhibitory activity against G810R (in words)” value (RET G810R kinase) was “good inhibitory activity”.
With `CCCCNc1cc(-c2ccc(N3CC4CC(C3)N4Cc3ccc(OC)nc3)nc2)c2c(C#N)cnn2c1` [Compound 68, 6-(butylamino)-4-(6-(6-((6-methoxypyridin-3-yl)methyl)-3,6-diazabicyclo[3.1.1]hept-3-yl)pyridin-3-yl)pyrazolo[1,5-a]pyridine-3-carbonitrile] the IC50 (Wild-type RET kinase) was 0.37 nM, the IC50 (VEGFR2 kinase) was 59.8 nM and the GI50 (Ba/F3-KIF5B-RET cell) was 4.19 nM. The IC50 (RET G810S kinase) was 6.18 nM, the “inhibitory activity against G810S (in words)” value (RET G810S kinase) was “good inhibitory activity” and the IC50 (RET G810R kinase) was 49.1 nM. For the same compound, the “inhibitory activity against G810R (in words)” value (RET G810R kinase) was “good inhibitory activity”.
In the case of `COc1ccc(CN2C3CC2CN(c2ccc(-c4cc(NCC(F)F)cn5ncc(C#N)c45)cn2)C3)cn1` [Compound 50], the IC50 (Wild-type RET kinase) is reported as 0.13 nM, the IC50 (VEGFR2 kinase) is reported as 59.3 nM and the GI50 (Ba/F3-KIF5B-RET cell) is reported as 5.75 nM. For the same compound, the IC50 (RET G810S kinase) was 1.35 nM, the “inhibitory activity against G810S (in words)” value (RET G810S kinase) was “good inhibitory activity” and the IC50 (RET G810R kinase) was 5.65 nM. For the same compound, the “inhibitory activity against G810R (in words)” value (RET G810R kinase) was “good inhibitory activity”.
For `COc1ccc(CN2C3CC2CN(c2ccc(-c4cc(Br)cn5ncc(C#N)c45)cn2)C3)cn1` [Compound 48], the IC50 (Wild-type RET kinase) was 2.89 nM, the IC50 (VEGFR2 kinase) was 875 nM and the GI50 (Ba/F3-KIF5B-RET cell) was 105 nM. For the same compound, the IC50 (RET G810S kinase) was 13 nM, the “inhibitory activity against G810S (in words)” value (RET G810S kinase) was “good inhibitory activity” and the IC50 (RET G810R kinase) was 63.2 nM. For the same compound, the “inhibitory activity against G810R (in words)” value (RET G810R kinase) was “good inhibitory activity”.
In the case of `COc1ccc(CN2C3CC2CN(c2ccc(-c4cc(N5CCOCC5)cn5ncc(C#N)c45)cn2)C3)cn1` [Compound 70, 4-(6-(6-((6-methoxypyridin-3-yl)methyl)-3,6-diazabicyclo[3.1.1]heptyl-3-yl)pyridin-3-yl)-6-morpholinopyrazolo[1,5-a]pyridine-3-carbonitrile], the IC50 (Wild-type RET kinase) is reported as 0.24 nM, the IC50 (VEGFR2 kinase) is reported as 57.5 nM and the GI50 (Ba/F3-KIF5B-RET cell) is reported as 1.97 nM. The IC50 (RET G810S kinase) was 10.4 nM, the “inhibitory activity against G810S (in words)” value (RET G810S kinase) was “good inhibitory activity” and the IC50 (RET G810R kinase) was 31.4 nM. For the same compound, the “inhibitory activity against G810R (in words)” value (RET G810R kinase) was “good inhibitory activity”.
For `CCCNc1cc(-c2ccc(N3CC4CC(C3)N4Cc3ccc(OC)nc3)nc2)c2c(C#N)cnn2c1` [Compound 57, 4-(6-(6-((6-methoxypyridin-3-yl)methyl)-3,6-diazabicyclo[3.1.1]heptan-3-yl)pyridin-3-yl)-6-(propylamino)pyrazolo[1,5-a]pyridine-3-carbonitrile], the IC50 (Wild-type RET kinase) was 0.32 nM, the IC50 (VEGFR2 kinase) was 31.3 nM and the GI50 (Ba/F3-KIF5B-RET cell) was 1.24 nM. For the same compound, the IC50 (RET G810S kinase) was 2.33 nM, the “inhibitory activity against G810S (in words)” value (RET G810S kinase) was “good inhibitory activity” and the IC50 (RET G810R kinase) was 10.6 nM. The “inhibitory activity against G810R (in words)” value (RET G810R kinase) was “good inhibitory activity”.
`COc1ccc(CN2C3CC2CN(c2ccc(-c4cc(NCC(C)C)cn5ncc(C#N)c45)cn2)C3)cn1` [Compound 67, 6-(isobutylamino)-4-(6-(6-((6-methoxypyridin-3-yl)methyl)-3,6-diazabicyclo[3.1.1]hept-3-yl)pyridin-3-yl)pyrazolo[1,5-a]pyridine-3-carbonitrile] showed an IC50 (Wild-type RET kinase) of 0.15 nM, an IC50 (VEGFR2 kinase) of 45.4 nM and a GI50 (Ba/F3-KIF5B-RET cell) of 2.19 nM. The IC50 (RET G810S kinase) was 11 nM, the “inhibitory activity against G810S (in words)” value (RET G810S kinase) was “good inhibitory activity” and the IC50 (RET G810R kinase) was 90.9 nM. The “inhibitory activity against G810R (in words)” value (RET G810R kinase) was “good inhibitory activity”.
With `CCNc1cc(-c2ccc(N3CC4CC(C3)N4Cc3ccc(-n4cc(F)cn4)nc3)nc2)c2c(C#N)cnn2c1` [Compound 52, 6-(ethylamino)-4-(6-(6-((6-(4-fluoro-1H-pyrazol-1-yl)pyridin-3-yl)methyl)-3,6-diazabicyclo[3.1.1]heptan-3-yl)pyridin-3-yl)pyrazolo[1,5-a]pyridine-3-carbonitrile] the IC50 (Wild-type RET kinase) was 2.02 nM, the IC50 (VEGFR2 kinase) was 39 nM and the GI50 (Ba/F3-KIF5B-RET cell) was 142 nM. For the same compound, the IC50 (CCDC6-RET) was < 5 nM, the IC50 (RET V804M) was < 5 nM and the IC50 (RET M918T) was < 5 nM.
For `COc1ccc(CN2C3CC2CN(c2cnc(-c4cc(N5CCOCC5)cn5ncc(C#N)c45)cn2)C3)cn1` [Compound 66, 4-(5-(6-((6-methoxypyridin-3-yl)methyl)-3,6-diazabicyclo[3.1.1]heptyl-3-yl)pyrazin-2-yl)-6-morpholinopyrazolo[1,5-a]pyridine-3-carbonitrile], the IC50 (Wild-type RET kinase) was 0.82 nM, the IC50 (VEGFR2 kinase) was 318 nM and the GI50 (Ba/F3-KIF5B-RET cell) was 6.21 nM. The IC50 (RET G810S kinase) was 26.7 nM, the “inhibitory activity against G810S (in words)” value (RET G810S kinase) was “good inhibitory activity” and the IC50 (RET G810R kinase) was 173 nM. The “inhibitory activity against G810R (in words)” value (RET G810R kinase) was “good inhibitory activity”.
With `CCNc1cc(-c2cnc(N3CC4CC(C3)N4Cc3ccc(OC)nc3)cn2)c2c(C#N)cnn2c1` [Compound 29, 6-(ethylamino)-4-(5-(-6-((6-methoxypyridin-3-yl)methyl)-3,6-diazabicyclo[3.1.1]heptane-3-yl)pyrazin-2-yl)pyrazolo[1,5-a]pyridine-3-carbonitrile] the IC50 (Wild-type RET kinase) was 0.181 nM, the IC50 (VEGFR2 kinase) was 56 nM and the GI50 (Ba/F3-KIF5B-RET cell) was 4.43 nM. The IC50 (RET G810S kinase) was 1.93 nM, the “inhibitory activity against G810S (in words)” value (RET G810S kinase) was “good inhibitory activity” and the IC50 (RET G810R kinase) was 23.8 nM. The “inhibitory activity against G810R (in words)” value (RET G810R kinase) was “good inhibitory activity”, the IC50 (CCDC6-RET) was < 5 nM and the IC50 (RET V804M) was < 5 nM. For the same compound, the IC50 (RET M918T) was < 5 nM.
`CNc1cc(-c2ccc(N3CC4CC(C3)N4Cc3ccc(OC)nc3)nc2)c2c(C#N)cnn2c1` [Compound 47, 4-(6-(6-((6-methoxypyridin-3-yl)methyl)-3,6-diazabicyclo[3.1.1]heptyl-3-yl)pyridin-3-yl)-6-(methylamino)pyrazolo[1,5-a]pyridine-3-carbonitrile] gave an IC50 (Wild-type RET kinase) of 0.04 nM, an IC50 (VEGFR2 kinase) of 33.7 nM and a GI50 (Ba/F3-KIF5B-RET cell) of 1.42 nM. The IC50 (RET G810S kinase) was 1.23 nM, the “inhibitory activity against G810S (in words)” value (RET G810S kinase) was “good inhibitory activity” and the IC50 (RET G810R kinase) was 8.93 nM. The “inhibitory activity against G810R (in words)” value (RET G810R kinase) was “good inhibitory activity”.
